Assay results as given in patent US10563263B2, “Genetic polymorphisms associated with statin response and cardiovascular diseases, methods of detection and uses thereof” (CELERA CORPORATION, priority 2010, dated 2020).

Test system: CVD (CHD or stroke)
Experiment: CARE: SNP by pravastatin treatment interaction, logistic regression (synergy index), CVD endpoint
Assay type: in vivo, human
Conditions: CARE
Source text: CARE was a secondary prevention trial and WOSCOPS was a primary prevention trial.
The CHD endpoint was defined in the analyses herein of CARE as a composite endpoint of fatal CHD, definite non-fatal MI, or revascularization, and was defined in the analyses herein of WOSCOPS as a composite endpoint of death from CHD, nonfatal MI, or revascularization. In both the CARE and WOSCOPS analyses herein, the CVD endpoint was defined as a composite endpoint of CHD or stroke. […] Revascularization, which can include percutaneous transluminal coronary angioplasty (PTCA), stent placement, and coronary artery bypass graft (CABG), are medical interventions that indicate the presence of CHD.
Cohort and case-only study designs were used to identify SNPs associated with response to statin treatment.
For each SNP, a logistic regression model having treatment status as the dependent variable and SNP as the independent predictor variable was performed, with terms for age, sex and race included in the model as covariates. The anti-log of the regression coefficient corresponding to the SNP is an estimate of the synergy index (SI) (Davis et al., “Imputing gene-treatment interactions when the genotype distribution is unknown using case-only and putative placebo analyses-a new method for the Genetics of Hypertension Associated Treatment (GenHAT) study”, Statistics in Medicine 23: (2004), pages 2413-2427). The SI is a ratio of odds ratios: for example in the CARE and WOSCOPS studies, the SI represents the factor by which the odds-ratio of statin treatment, compared with placebo, among major homozygous individuals is multiplied by in order to obtain the odds-ratio of treatment vs. placebo among heterozygous individuals; and multiplied by a second time to obtain the odds-ratio of treatment vs. placebo in minor homozygous individuals. […] In a randomized clinical trial, genotype and treatment are independent by design.

SMILES: CC[C@H](C)C(=O)O[C@H]1C[C@H](O)C=C2C=C[C@H](C)[C@H](CC[C@@H](O)C[C@@H](O)CC(=O)O)[C@H]21 [Pravastatin, pravastatin]
- OR (synergy index, SNP x pravastatin treatment interaction) (rs152707 allele A, model ADD, Imputed): 0.684
- OR (synergy index, SNP x pravastatin treatment interaction) (rs152712 allele C, model ADD, Genotyped): 0.6783
- OR (SNP x pravastatin interaction) (rs208026 allele A, DOM model, Genotyped): 1.457
- OR (SNP x pravastatin interaction) (rs208029 allele T, DOM model, Imputed): 1.41
- OR (SNP x pravastatin interaction) (rs208757 allele G, DOM model, Imputed): 1.423
- OR (SNP x pravastatin interaction) (rs229775 allele A, REC model, Imputed): 0.3933
- OR (SNP x pravastatin interaction) (rs229815 allele T, REC model, Imputed): 0.4053
- OR (SNP x pravastatin interaction) (rs229829 allele C, REC model, Imputed): 0.5066
- OR (SNP x pravastatin interaction) (rs229831 allele A, REC model, Imputed): 0.3945
- OR (SNP x pravastatin interaction) (rs238252 allele G, ADD model, Imputed): 1.66
- OR (SNP x pravastatin interaction) (rs238252 allele G, DOM model, Imputed): 1.848
- OR (synergy index, SNP x pravastatin treatment interaction) (rs1444741 allele A, model DOM, Imputed): 0.6595
- OR (synergy index, SNP x pravastatin treatment interaction) (rs1449916 allele C, model DOM, Imputed): 0.5892
- OR (synergy index, SNP x pravastatin treatment interaction) (rs1459523 allele A, model ADD, Imputed): 1.366
- OR (synergy index, SNP x pravastatin treatment interaction) (rs1476714 allele A, model DOM, Imputed): 0.6618
- OR (synergy index, SNP x pravastatin treatment interaction) (rs1486723 allele C, model REC, Imputed): 0.4458
- OR (synergy index, SNP x pravastatin treatment interaction) (rs1495375 allele A, model ADD, Imputed): 0.741
- OR (synergy index, SNP x pravastatin treatment interaction) (rs1495375 allele A, model DOM, Imputed): 0.6085
- OR (synergy index, SNP x pravastatin treatment interaction) (rs1495381 allele T, model REC, Imputed): 1.776
- OR (synergy index, SNP x pravastatin treatment interaction) (rs1498061 allele C, model ADD, Imputed): 0.4939
- OR (synergy index, SNP x pravastatin treatment interaction) (rs1498992 allele G, model DOM, Imputed): 0.5981
- OR (synergy index, SNP x pravastatin treatment interaction) (rs1499001 allele T, model DOM, Imputed): 0.5667
- OR (synergy index, SNP x pravastatin treatment interaction) (rs1512988 allele A, model ADD, Imputed): 0.7274
- OR (synergy index, SNP x pravastatin treatment interaction) (rs1512988 allele A, model DOM, Imputed): 0.6077
- OR (synergy index, SNP x pravastatin treatment interaction) (rs1512989 allele T, model ADD, Imputed): 0.7274
- OR (synergy index, SNP x pravastatin treatment interaction) (rs1512989 allele T, model DOM, Imputed): 0.6077
- OR (synergy index, SNP x pravastatin treatment interaction) (rs1512991 allele T, model ADD, Imputed): 0.7286
- OR (synergy index, SNP x pravastatin treatment interaction) (rs1512991 allele T, model DOM, Imputed): 0.6184
- OR (synergy index, SNP x pravastatin treatment interaction) (rs1524306 allele C, model ADD, Imputed): 1.366
- OR (synergy index, SNP x pravastatin treatment interaction) (rs1524310 allele G, model ADD, Imputed): 1.366
- OR (synergy index, SNP x pravastatin treatment interaction) (rs1527059 allele A, model DOM, Imputed): 0.5689
- OR (synergy index, SNP x pravastatin treatment interaction) (rs1535866 allele G, model DOM, Imputed): 1.391
- OR (synergy index, SNP x pravastatin treatment interaction) (rs1567740 allele T, model ADD, Imputed): 0.7274
- OR (synergy index, SNP x pravastatin treatment interaction) (rs1567740 allele T, model DOM, Imputed): 0.6032
- OR (synergy index, SNP x pravastatin treatment interaction) (rs1572573 allele A, model DOM, Imputed): 1.748
- OR (synergy index, SNP x pravastatin treatment interaction) (rs1577497 allele C, model REC, Imputed): 0.4912
- OR (synergy index, SNP x pravastatin treatment interaction) (rs1581514 allele T, model ADD, Imputed): 1.353
- OR (synergy index, SNP x pravastatin treatment interaction) (rs1582321 allele T, model DOM, Imputed): 0.5814
- OR (synergy index, SNP x pravastatin treatment interaction) (rs1582322 allele A, model DOM, Imputed): 0.5859
- OR (synergy index, SNP x pravastatin treatment interaction) (rs1582323 allele A, model DOM, Imputed): 0.5825
- OR (synergy index, SNP x pravastatin treatment interaction) (rs1592485 allele C, model DOM, Imputed): 0.5835
- OR (synergy index, SNP x pravastatin treatment interaction) (rs1600954 allele T, model ADD, Imputed): 1.379
- OR (synergy index, SNP x pravastatin treatment interaction) (rs1705261 allele A, model REC, Imputed): 1.775
- OR (synergy index, SNP x pravastatin treatment interaction) (rs1832222 allele G, model DOM, Imputed): 1.612
- OR (synergy index, SNP x pravastatin treatment interaction) (rs1861327 allele G, model DOM, Imputed): 0.5814
- OR (synergy index, SNP x pravastatin treatment interaction) (rs1868581 allele G, model ADD, Imputed): 1.366
- OR (synergy index, SNP x pravastatin treatment interaction) (rs1874313 allele A, model ADD, Imputed): 0.7419
- OR (synergy index, SNP x pravastatin treatment interaction) (rs1874313 allele A, model DOM, Imputed): 0.615
- OR (SNP x pravastatin interaction) (rs1876409 allele C, DOM model, Imputed): 0.6151
- OR (SNP x pravastatin interaction) (rs1913201 allele G, ADD model, Imputed): 0.7218
- OR (SNP x pravastatin interaction) (rs1913201 allele G, DOM model, Imputed): 0.6464
- OR (SNP x pravastatin interaction) (rs1936871 allele G, DOM model, Genotyped): 0.571
- OR (SNP x pravastatin interaction) (rs1961157 allele T, REC model, Imputed): 0.6068
- OR (SNP x pravastatin interaction) (rs1987179 allele T, ADD model, Imputed): 0.7138
- OR (SNP x pravastatin interaction) (rs1987179 allele T, DOM model, Imputed): 0.6634
- OR (SNP x pravastatin interaction) (rs1990023 allele T, DOM model, Imputed): 0.6462
- OR (SNP x pravastatin interaction) (rs1995025 allele C, DOM model, Imputed): 1.608
- OR (SNP x pravastatin interaction) (rs2016194 allele G, DOM model, Imputed): 0.6626
- OR (SNP x pravastatin interaction) (rs2023651 allele T, ADD model, Imputed): 0.682
- OR (SNP x pravastatin interaction) (rs2024902 allele A, ADD model, Imputed): 1.998
- OR (SNP x pravastatin interaction) (rs2024902 allele A, DOM model, Imputed): 2.076
- OR (SNP x pravastatin interaction) (rs2025107 allele A, DOM model, Imputed): 1.856
- OR (SNP x pravastatin interaction) (rs2025108 allele T, DOM model, Imputed): 1.856
- OR (SNP x pravastatin interaction) (rs2052428 allele C, DOM model, Imputed): 0.5903
- OR (SNP x pravastatin interaction) (rs2053230 allele C, ADD model, Imputed): 0.5414
- OR (SNP x pravastatin interaction) (rs2062448 allele T, DOM model, Imputed): 0.5462
- OR (SNP x pravastatin interaction) (rs2063420 allele C, REC model, Imputed): 1.755
- OR (SNP x pravastatin interaction) (rs2063591 allele C, ADD model, Imputed): 0.7519
- OR (SNP x pravastatin interaction) (rs2063591 allele C, DOM model, Imputed): 0.6237
- OR (SNP x pravastatin interaction) (rs2095586 allele A, DOM model, Imputed): 1.655
- OR (SNP x pravastatin interaction) (rs2095606 allele A, DOM model, Imputed): 0.5466
- OR (SNP x pravastatin interaction) (rs2102374 allele A, ADD model, Imputed): 0.6269
- OR (SNP x pravastatin interaction) (rs2102374 allele A, DOM model, Imputed): 0.5989
- OR (SNP x pravastatin interaction) (rs2108426 allele C, DOM model, Imputed): 0.6626
- OR (SNP x pravastatin interaction) (rs2110664 allele A, DOM model, Imputed): 1.429
